Consider seven molecules from patent US9359298B2, “Cajanine structure analogous compound, preparation method and use” (INSTITUTE OF MEDICINAL BIOTECHNOLOGY, CHINESE ACADEMY OF …, priority 2011, dated 2016).

Converted amounts (≈) assume the structure as drawn.

Assay type in all cases: cell-based
Assay [1] relates to Influenza A virus (hanfang359/95). Kind of assay: Determination of anti-influenza virus activity (CPE in MDCK cells). The settings on record: for IC50: Influenza A virus, MDCK, 36 h.
For assay [2], the system named is HIV-1 III B virus. The assay is described as follows: Anti-HIV activity assay (P24 antigen in MT-4 cells). Conditions: for IC50: Human immunodeficiency virus 1, MT4, 96 h, MT-4 cells, HIV-1 III B 100TCID50, 96 h, P24 antigen, read-out: HIV IC50; for anti-HIV viral activity: statement in words.
Assay [3] deals with PC12 cells. The assay is described as follows: Neuroprotective activity assay, rotenone injury to PC12 cells (MTT). The settings on record: for viability at 10 µM: Rattus norvegicus, PC-12, 48 h, 10 μM test compound, 4 μM rotenone, 48 h, Control 100.0 ± 8.9, Model 73.2 ± 7.8, read-out: rotenone (surviving PC12 cells, MTT 570 nm); for protective effect on rotenone injury to PC12 cells: statement in words. In short, it runs like this: (§1)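 PC12 cells on poly-lysine plated 24 h, then injured 48 h by serum-free DMEM or 4 μM rotenone with 10 μM test compound present during injury. Viability read by MTT (4 h), absorbance 570 nm.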

The test system of assay [4] is HCV. Kind of assay: Anti-hepatitis C virus (HCV) activity assay (HCV RNA in Huh7.5 cells). Conditions: for EC50: Hepatitis C virus, Huh7.5, 72 h, Huh7.5 cells, 72 h, HCV RNA by RT-PCR, Reed-Muench, read-out: HCV EC50; for anti-HCV viral activity: statement in words. As to the method: Inoculate Huh7.5 cells into 96-well plates to a density of 3×10^4 cells/cm^2, culture for 24h, infect the cells with 45 IU/cell HCV supernatant, meanwhile, add drug solutions or solvent control for treatment.

The test system of assay [5] is Coxsackie virus B6. Kind of assay: Coxsackie virus activity assay (CPE in Vero cells). Conditions: Vero, read-out: COX-B6 IC50, Vero cells, about 100TCID50, CPE, Reed-Muench.
Assay [6] relates to PC12 cells. Kind of assay: Neuroprotective activity assay, serum-deprived injury to PC12 cells (MTT). Conditions: for viability at 10 µM: Rattus norvegicus, PC-12, 48 h, 10 μM test compound, 48 h, Control 100.0 ± 9.2, Model 69.3 ± 4.1, read-out: serum-deprived (surviving PC12 cells, MTT 570 nm); for protective effect on serum-deprived injury to PC12 cells: statement in words. In short, it runs like this: as §1

Turning to `COc1cc(/C=C/c2ccccc2)cc(O)c1C/C=C(\C)CCC=C(C)C` [Compound 10o], the IC50 in assay [1] was above 2.06 µg/mL. In assay [2], the IC50 is 0.96 µg/mL (≈ 2.65 µM) and the “anti-HIV viral activity” value is on record as “stronger anti-HIV, HCV viral activities”. In assay [3], the viability at 10 µM came out at 87.6 ± 5.4% and the “protective effect on rotenone injury to PC12 cells” value is “the strongest activities”. Further, in assay [4], the EC50 worked out at 1.32 µg/mL (≈ 3.64 µM) and the “anti-HCV viral activity” value is “stronger anti-HIV, HCV viral activities”. For the same molecule, the IC50 in assay [5] is 0.96 µg/mL (≈ 2.65 µM). Besides, in assay [6], the viability at 10 µM came out at 86.3 ± 3.8% and the “protective effect on serum-deprived injury to PC12 cells” value is listed as “the strongest activities”.

As to `COc1cc(/C=C/C2CCCCC2)cc(O)c1CC=C(C)C` [Compound 10p, 2-isopentenyl-3-methoxy-5-[(E)-2-cyclohexylvinyl]phenol], the IC50 in assay [1] was 2.65 µg/mL (≈ 8.82 µM); in assay [2], 7.19 µg/mL (≈ 23.9 µM); in assay [5], above 6.19 µg/mL. In addition, the figures for the viability at 10 µM in assay [3] and in assay [6] were 86.7 ± 9.1% and 84.6 ± 2.7%, respectively. Moreover, the “protective effect on rotenone injury to PC12 cells” value in assay [3] is “the strongest activities”. In addition, the EC50 in assay [4] is 2.95 µg/mL (≈ 9.82 µM). Further, the “protective effect on serum-deprived injury to PC12 cells” value in assay [6] is recorded as “the strongest activities”.

As for `COc1cc(/C=C/c2ccc(O)cc2)cc(O)c1CC=C(C)C` [Compound 10q, 2-isopentenyl-3-methoxy-5-[(E)-4′-hydroxystyryl]-phenol], the values for the IC50 in assay [1], in assay [2] and in assay [5] were 1.39 µg/mL (≈ 4.48 µM), 2.38 µg/mL (≈ 7.67 µM) and 2.35 µg/mL (≈ 7.57 µM), respectively. The “anti-influenza virus activities compared with the lead compound cajanine” value in assay [1] (statement in words) is “significantly stronger than the lead compound cajanine”. The “anti-HIV viral activity” value in assay [2] is given as “stronger anti-HIV, HCV viral activities”. Moreover, the viability at 10 µM is 76.8 ± 5.8% in assay [3] and 79.5 ± 1.4% in assay [6]. Besides, the EC50 in assay [4] came out at 0.89 µg/mL (≈ 2.87 µM). Further, the “anti-HCV viral activity” value in assay [4] is listed as “stronger anti-HIV, HCV viral activities”.

In the case of `COc1cc(/C=C/c2ccncc2)cc(O)c1CC=C(C)C` [Compound 10r, 2-isopentenyl-3-methoxy-5-[(E)-(pyrid-4-yl)ethenyl]phenol], the IC50 is above 0.69 µg/mL in assay [1], 1.73 µg/mL (≈ 5.86 µM) in assay [2] and 3.23 µg/mL (≈ 10.9 µM) in assay [5]. For the same molecule, the viability at 10 µM in assay [3] came to 58.4 ± 6.5%; in assay [6], 68.5 ± 2.4%. Also, the EC50 in assay [4] is 1.71 µg/mL (≈ 5.79 µM).

Consider `COc1c(Cl)c(/C=C/c2ccccc2)cc(O)c1CC=C(C)C` [Compound 10s, 2-isopentenyl-3-methoxy-4-chloro-5-[(E)-styryl]phenol], for which the IC50 was above 6.17 µg/mL in assay [1], 2.75 µg/mL (≈ 8.36 µM) in assay [2] and 4.35 µg/mL (≈ 13.2 µM) in assay [5]. The viability at 10 µM in assay [3] worked out at 79.8 ± 3.5%; in assay [6], 78.5 ± 6.3%. Further, the EC50 in assay [4] was 5.17 µg/mL (≈ 15.7 µM).

As for `COc1cc(CCc2ccccc2)cc(O)c1CCC(C)C` [Compound 10u, 2-isopentyl-3-methoxy-5-phenethyl phenol], the IC50 in assay [1] was above 2.06 µg/mL; in assay [2], 6.39 µg/mL (≈ 21.4 µM); in assay [5] it was above 6.19 µg/mL. For the same molecule, the viability at 10 µM in assay [3] is 85.4 ± 2.3%; in assay [6] it was 87.6 ± 3.2%. In addition, the “protective effect on rotenone injury to PC12 cells” value in assay [3] was “the strongest activities”. In assay [4], the EC50 worked out at 4.06 µg/mL (≈ 13.6 µM). In assay [6], the “protective effect on serum-deprived injury to PC12 cells” value was “the strongest activities”.

Take `COc1cc(CCc2ccccc2)cc(O)c1CC=C(C)C` [Compound 10v, 2-isopentenyl-3-methoxy-5-phenethyl phenol]: the IC50 was above 0.69 µg/mL in assay [1], 1.36 µg/mL (≈ 4.59 µM) in assay [2] and above 6.19 µg/mL in assay [5]. Also, the viability at 10 µM is 87.1 ± 2.5% in assay [3] and 85.2 ± 4.1% in assay [6]. In addition, in assay [3], the “protective effect on rotenone injury to PC12 cells” value is listed as “the strongest activities”. The EC50 in assay [4] came to 1.73 µg/mL (≈ 5.84 µM). Besides, in assay [6], the “protective effect on serum-deprived injury to PC12 cells” value was “the strongest activities”.

For orientation: IC50 means the midpoint of a concentration-inhibition curve. As usually defined, the EC50 is the midpoint of the concentration-response curve.
